Laboratory results as given in US9388389B2, “JFH-1 based HCV cell culture systems for NS5A of genotypes 1-7” (Hvidovre Hospital, priority 2009, dated 2016).
Where two headings read alike, the source gives them in different places.

Tests used:
[1] = tested on: J6/JFH1 with NS5A mutation L27I; test: BMS-790052 treatment of infected cultures; assay type: cell-based, hepatitis C virus
[2] = tested on: genotype 1 replicons; conditions: cited from earlier work
[3] = tested on: J6/JFH1 with NS5A mutation K30A; test: BMS-790052 treatment of infected cultures; assay type: cell-based, hepatitis C virus
[4] = tested on: J4(1b)-Y93H; test: BMS-790052 treatment of infected cultures; assay type: cell-based, hepatitis C virus
Method: (§1) 5×10^3 naïve Huh7.5 cells were plated per well in a poly-D-lysine coated 96-well plate (Nunc, Roskilde, D K) one day before infection with different recombinant viruses. Infectious doses were chosen to aim at 400-1000 single infected cells in non-treated wells at the end of the experiment. J6/JFH1 was included with two infectious doses (high and low) to control for impact of dose variability. The infectious dose of other recombinants was in the range between. […] On day three cells were fixed and immunostained for NS3 expression as described above. In parallel, cell viability was monitored with CellTiter™ 96 AQueous One Solution Cell Proliferation Assay (Promega, Madison, Wis. USA). The number of single infected cells was determined by automated counting of individual wells as described above.
(§2) To improve HCV treatment, much attention has been drawn to development of specific small molecule HCV inhibitors, including inhibitors of NS5A. Using the NS5A genotype recombinants, we investigated sensitivity to the NS5A inhibitor most advanced in clinical trials, BMS-790052. Treatment experiments using the specific NS5A inhibitor BMS-790052 (synthesized by Acme Bioscience, Palo Alto, Calif., USA) were conducted similar to what was described for interferon-alpha.
The best described resistance mutation for this drug class, change of NS5A residue 93, induced >10-fold resistance to BMS-790052 for genotype 1 replicons. We changed this residue to histidine in the NS5A genotype 1-6 recombinants; QC69(7a) naturally had histidine. In BMS-790052 treatment experiments, H77C(1a)-Y93H, JFH1(2a)-Y93H and S52(3a)-Y93H were >1000-fold, J4(1b)-Y93H, J6(2a)-Y93H and ED43(4a)-Y93H˜100-fold, and SA13(5a)-T93H and HK6a(6a)-T93H<5-fold more resistant than the respective original recombinants (Table 21). […] The presence of L31M in the J6(2a) isolate and C92E in the S52(3a) isolate corresponded to the higher resistance of these isolates. Further, the lower sensitivity of J1(1a) compared to other 1a recombinants could be caused by the histidine found at NS5A residue 30, previously associated with resistance in patients.

[5] = tested on: HCV NS5A genotype 1-7 recombinants; test: BMS-790052 treatment of infected cultures, high-throughput assay; assay type: cell-based; conditions: Hepatitis C virus, most isolates
Method: as §1, §2

[6] = tested on: HCV-1(1a) NS5A recombinant; test: BMS-790052 treatment of infected cultures; assay type: cell-based; conditions: Hepatitis C virus; genotype 1a, isolate HCV-1 NS5A recombinant; read-out: NS5A inhibitor, EC50 (nM), original
Method: as §1, §2

[7] = tested on: J1(1a) NS5A recombinant; test: BMS-790052 treatment of infected cultures; assay type: cell-based; conditions: Hepatitis C virus
Method: as §1, §2

[8] = tested on: ED43(4a) NS5A recombinant; test: BMS-790052 treatment of infected cultures; assay type: cell-based; conditions: Hepatitis C virus, read-out: NS5A inhibitor, EC50 (nM), original
Method: as §1, §2

[9] = tested on: J6(2a) NS5A recombinant; test: BMS-790052 treatment of infected cultures; assay type: cell-based; conditions: Hepatitis C virus
Method: as §1, §2

[10] = tested on: H77C(1a) NS5A recombinant; test: BMS-790052 treatment of infected cultures; assay type: cell-based; conditions: Hepatitis C virus; genotype 1a, isolate H77C NS5A recombinant; read-out: NS5A inhibitor, EC50 (nM), original
Method: as §1, §2

[11] = tested on: J4(1b) NS5A recombinant; test: BMS-790052 treatment of infected cultures; assay type: cell-based; conditions: Hepatitis C virus
Method: as §1, §2

[12] = tested on: S52(3a) NS5A recombinant; test: BMS-790052 treatment of infected cultures; assay type: cell-based; conditions: Hepatitis C virus
Method: as §1, §2

[13] = tested on: TN(1a) NS5A recombinant; test: BMS-790052 treatment of infected cultures; assay type: cell-based; conditions: Hepatitis C virus; genotype 1a, isolate TN NS5A recombinant; read-out: NS5A inhibitor, EC50 (nM), original
Method: as §1, §2

[14] = tested on: SA13(5a) NS5A recombinant; test: BMS-790052 treatment of infected cultures; assay type: cell-based; conditions: Hepatitis C virus; genotype 5a, isolate SA13 NS5A recombinant; read-out: NS5A inhibitor, EC50 (nM), original
Method: as §1, §2

[15] = tested on: QC69(7a) NS5A recombinant; test: BMS-790052 treatment of infected cultures; assay type: cell-based; conditions: Hepatitis C virus; genotype 7a, isolate QC69 NS5A recombinant; read-out: NS5A inhibitor, EC50 (nM), original
Method: as §1, §2

[16] = tested on: HK6a(6a) NS5A recombinant; test: BMS-790052 treatment of infected cultures; assay type: cell-based; conditions: Hepatitis C virus; genotype 6a, isolate HK6a NS5A recombinant; read-out: NS5A inhibitor, EC50 (nM), original
Method: as §1, §2

[17] = tested on: DH6(1a) NS5A recombinant; test: BMS-790052 treatment of infected cultures; assay type: cell-based; conditions: Hepatitis C virus; genotype 1a, isolate DH6 NS5A recombinant; read-out: NS5A inhibitor, EC50 (nM), original
Method: as §1, §2

[18] = tested on: JFH1(2a) NS5A (J6/JFH1); test: BMS-790052 treatment of infected cultures; assay type: cell-based; conditions: Hepatitis C virus; genotype 2a, isolate JFH1 NS5A (J6/JFH1); read-out: NS5A inhibitor, EC50 (nM), original
Method: as §1, §2

[19] = tested on: J6/JFH1 with NS5A mutation I37V; test: BMS-790052 treatment of infected cultures; assay type: cell-based, hepatitis C virus

In the case of `COC(=O)N[C@H](C(=O)N1CCC[C@H]1c1nc(-c2ccc(-c3ccc(-c4c[nH]c([C@@H]5CCCN5C(=O)[C@@H](NC(=O)OC)C(C)C)n4)cc3)cc2)c[nH]1)C(C)C` [BMS-790052], the EC50 ([1]; Hepatitis C virus, JFH1(2a), NS5A mutation L27I, single experiment of three replicates, read-out: NS5A inhibitor, EC50 (nM), putative resistance mutant) is given as 0.14 nM, the “Fold resistance compared to original” value ([1]; JFH1(2a) L27I vs original JFH1(2a)) is given as 1.6 fold and the “fold resistance induced by change of NS5A residue 93” value [2] is given as > 10 fold. The EC50 ([3]; Hepatitis C virus, JFH1(2a), NS5A mutation K30A, single experiment of three replicates, read-out: NS5A inhibitor, EC50 (nM), putative resistance mutant) was 0.034 nM, the “Fold resistance compared to original” value ([3]; JFH1(2a) K30A vs original JFH1(2a)) was 0.38 fold and the EC50 ([4]; Hepatitis C virus, J4(1b), NS5A mutation Y93H, read-out: NS5A inhibitor, EC50 (nM), putative resistance mutant) was 0.77 nM. The “Fold resistance compared to original” value ([4]; J4(1b) Y93H vs original J4(1b)) was 82 fold, the “fold more resistant than the respective original recombinant” value ([4]; J4(1b)-Y93H) was ~100 fold and the EC50 [5] was < 100 pM. It also gave an EC50 [6] of 0.12 nM, an EC50 ([7]; J1(1a), read-out: EC50) of 1.1 nM and an EC50 ([7]; genotype 1a, isolate J1 NS5A recombinant, read-out: NS5A inhibitor, EC50 (nM), original) of 1.1 nM. It also gave an EC50 [8] of 0.017 nM, an EC50 ([9]; J6(2a), read-out: EC50) of 14 nM and an EC50 ([9]; genotype 2a, isolate J6 NS5A recombinant, read-out: NS5A inhibitor, EC50 (nM), original) of 14 nM. It also gave an EC50 [10] of 0.026 nM, an EC50 ([11]; J4(1b), most sensitive, read-out: EC50) of 0.009 nM and an EC50 ([11]; genotype 1b, isolate J4 NS5A recombinant, read-out: NS5A inhibitor, EC50 (nM), original) of 0.009 nM. For the same compound, the EC50 ([12]; S52(3a), read-out: EC50) was 0.9 nM, the EC50 ([12]; genotype 3a, isolate S52 NS5A recombinant, read-out: NS5A inhibitor, EC50 (nM), original) was 0.9 nM and the EC50 [13] was 0.038 nM. For the same compound, the EC50 [14] was 0.034 nM, the EC50 [15] was 0.05 nM and the EC50 [16] was 0.031 nM. The EC50 [17] was 0.065 nM, the EC50 [18] was 0.097 nM and the EC50 ([19]; Hepatitis C virus, JFH1(2a), NS5A mutation I37V, single experiment of three replicates, read-out: NS5A inhibitor, EC50 (nM), putative resistance mutant) was 0.17 nM. The “Fold resistance compared to original” value ([19]; JFH1(2a) I37V vs original JFH1(2a)) was 2.0 fold.
